Measurements reported in US7319153B2, “6,13-Bis(thienyl)pentacene compounds” (3M Innovative Properties Company, priority 2005, dated 2008).
Like-named read-outs stand apart in the source and are kept apart here.

Key:
[1] = isolation and purification; cited from earlier work
[2] = Stability in tetrahydrofuran (endoperoxide formation by proton NMR); format: physicochemical; details: for Mole percent impurity—120 hours: endoperoxide in tetrahydrofuran-d8 after 120 hours, protected from light; for Mole percent impurity—120 hours / Mole percent increase: room temperature; for Mole percent impurity—initial: endoperoxide in tetrahydrofuran-d8 solution; for Mole percent increase: increase of endoperoxide over 120 hours in tetrahydrofuran-d8, protected from light
Experimental: The solution stabilities of the compounds of Examples 1 to 4 were determined by proton NMR analysis of saturated solutions of the corresponding compounds in tetrahydrofuran-d8. Comparing the proton NMR integration of the four protons at positions 5, 7, 12 and 14 (8.51 ppm to 8.69 ppm) to the integration of the four corresponding protons from the endoperoxide (the major and only detectable decomposition product, 7.93 ppm to 7.98 ppm), the percent increase of this impurity was determined for each compound. The solutions were prepared by dissolving the corresponding compound in tetrahydrofuran-d8 and the proton NMR spectra were obtained to determine the initial concentration of endoperoxide for each sample. The solutions were allowed to stand protected from light at room temperature (i.e., 20° C. to 25° C.) for 120 hours. Proton NMR spectra of the aged samples were taken and the increase in absorption of the endoperoxide was used to calculate the data shown in Table 3. The formation of the endoperoxide is shown in the following reaction for compounds of Formula II.

[3] = Solubility in tetrahydrofuran-d8 by proton NMR of saturated solutions; format: physicochemical
Experimental: The solubility of each compound prepared in Examples 1 to 4 was determined by the following method. The proton NMR spectra of saturated solutions of the compounds prepared in Examples 1 to 4 dissolved in tetrahydrofuran-d8 were compared with the proton NMR spectrum of a standard solution (i.e., known concentration) of the compound of Example 2, which was 2-hexyl-5-[ 13-(5-hexylthien-2-yl)pentacene-6-yl]thiophene, dissolved in tetrahydrofuran-d8. The same lot of tetrahydrofuran-d8 was used to make all of the solutions. The standard solution was prepared by dissolving 7.0 mg of the compound of Example 2 in 936 mg of tetrahydrofuran-d8 to give a 0.742 weight percent solution. Saturated solutions of the compounds of Examples 1 to 4 were prepared by placing an excess of the corresponding compound in approximately 1 mL of tetrahydrofuran-d8 and mixing for 30 minutes. The solutions were filtered and placed in an NMR tube and the corresponding proton NMR spectra were obtained.
For the standard (0.742 weight percent solution of the compound of Example 2), the NMR integration for the absorption at 8.59 ppm (the most down-field absorption corresponding to the four protons at positions 5, 7, 12 and 14) was compared to the absorption of the residual protio-tetrahydrofuran at 3.6 ppm to give a relative ratio of moles of the compound of Example 2 to moles of protio-tetrahydrofuran of 0.33. The molar ratio of the compound of Example 2 to tetrahydrofuran (protio- and deutero-) in the standard solution is 8.83×10^−4. This molar ratio (8.83×10^−4) divided by the relative ratio of moles of the compound of Example 2 to moles of protio-tetrahydrofuran (0.33) gave a factor of 2.68×10^−3. Multiplying this factor by the proton NMR integration for the saturated solutions of the corresponding compounds of Example 1 to 4 gave the ratio of moles of pentacene derivative to moles of tetrahydrofuran in the saturated solutions. This allowed the calculation of the concentrations for the various solutions of compounds of Examples 1 to 4 as shown in the table below.

[4] = small quantity extracted into refluxing 1,2-dichlorobenzene; cited from earlier work
[5] = saturated solution in tetrahydrofuran-d8, mixed 30 minutes, filtered

| Mole percent impurity—120 hours [2] | Mole percent impurity—initial [2] | Mole percent increase [2] | Molarity in THF [3, 5] | Moles of compound/moles of THF [3, 5] | Weight percent in THF [3, 5] | Molarity in THF [3] | Moles of compound/moles of THF [3] | Compound | air and light sensitivity [1] | time to bleaching [4] |
| --- | --- | --- | --- | --- | --- | --- | --- | --- | --- | --- |
| 10.71 mole percent | 2.91 mole percent | 7.80 mole percent | 1.22 × 10^−1 | 1.08 × 10^−2 | 8.35 weight percent | – | – | CCCCCCc1ccc(-c2c3cc4ccccc4cc3c(-c3ccc(CCCCCC)s3)c3cc4ccccc4cc23)s1 [Example 2, 2-hexyl-5-[13-(5-hexylthien-2-yl)pentacene-6-yl]thiophene] | – | – |
| 6.54 mole percent | 2.91 mole percent | 3.63 mole percent | – | – | 0.135 weight percent | 1.98 × 10^−3 | 1.61 × 10^−4 | c1csc(-c2ccc(-c3c4cc5ccccc5cc4c(-c4ccc(-c5cccs5)s4)c4cc5ccccc5cc34)s2)c1 [Example 4, 5-[13-(2,2′-bithien-5-yl)pentacen-6-yl]-2,2′-bithiophene] | – | – |
| 21.26 mole percent | 5.66 mole percent | 15.60 mole percent | 6.58 × 10^−3 | 5.35 × 10^−4 | 0.327 weight percent | – | – | c1csc(-c2c3cc4ccccc4cc3c(-c3cccs3)c3cc4ccccc4cc23)c1 [Example 1, 2-(13-thien-2-ylpentacene-6-yl)thiophene] | – | – |

The remaining lines, values behind:

| Compound | Mole percent impurity—120 hours [2] | Mole percent impurity—initial [2] | Mole percent increase [2] | Molarity in THF [3, 5] | Moles of compound/moles of THF [3, 5] | Weight percent in THF [3, 5] | Molarity in THF [3] | Moles of compound/moles of THF [3] | air and light sensitivity [1] | time to bleaching [4] |
| --- | --- | --- | --- | --- | --- | --- | --- | --- | --- | --- |
| C[Si](C)(C)c1cc2cc3cc4cc5cc([Si](C)(C)C)c([Si](C)(C)C)cc5cc4cc3cc2cc1[Si](C)(C)C [2,3,9,10-tetrakis(trimethylsilyl)pentacene] | – | – | – | – | – | – | – | – | highly air- and light-sensitive | – |
| c1ccc2cc3cc4cc5ccccc5cc4cc3cc2c1 [pentacene] | – | – | – | – | – | – | – | – | – | less than 5 minutes |
| C[Si](C)(C)c1ccc(-c2c3cc4ccccc4cc3c(-c3ccc([Si](C)(C)C)s3)c3cc4ccccc4cc23)s1 [Example 3, trimethyl(5-{13-[5-(trimethylsilyl)thien-2-yl]pentacen-6-yl}thien-2-yl)silane] | 4.76 mole percent | 1.96 mole percent | 2.80 mole percent | 3.54 × 10^−2 | 2.94 × 10^−3 | 2.34 weight percent | – | – | – | – |
